According to patent publication US9913831B2, “Methods and compositions for treating nephrogenic diabetes insipidus” (UNIVERSITY OF UTAH RESEARCH FOUNDATION, priority 2011, dated 2018):

Columns and labels:
[1] = system: ADP-activated P2Y12 receptor
[2] = system: lithium-induced polyuria in rats
Protocol: Animal experiments: Male Sprague-Dawley rats were purchased from Charles River (Wilmington, Mass., USA), and Brattleboro mutant rats that lack AVP (HsdBlu:BRAT-Avpdi) were obtained from the Rat Resource & Research Center (RRRC), University of Missouri, Columbia, Mo., USA. Mice (B6D2 genetic background) were bred in-house. […] Lithium-added chow (40 mmol Li/kg chow) was custom prepared (MP Biomedicals, Aurora, Ohio, USA). Clopidogrel bisulfate was administered orally by powdering and dissolving Plavix® tablets (Bristol-Myers Squibb, New York, N.Y., USA) in drinking water. The concentration of the drug in the drinking water was adjusted daily based on the water consumption of the animals the previous day. The clopidogrel dose used in Sprague-Dawley rats (20 mg/kg bw/day) was the same as used by other investigators (de La Crux et al, 2003; Graciano et al, 2008). In mice, clopidogrel was administered at a dose of 80 mg/kg bw/day. When compared with the human clinical dose of Plavix®, and adjusted to the Km factor (ratio of body surface area to body weight) of the species (man vs. rat or mouse) (Reagan-Shaw et al, 2007), the doses used in rats or mice were 2.5- and 5-fold higher, respectively. […] A higher dose of clopidogrel (40 mg/kg bw/day) was used in Brattleboro rats to ensure an unequivocal outcome whether positive or negative. Twenty-four hour urine samples were collected by placing the animals in the appropriate metabolic cages designed for rats and mice. Blood and kidney tissues were collected at necropsy. Cortical, outer and inner medullary regions of the kidneys were dissected out and processed for laboratory assays.
Microhematocrit was determined by centrifuging free-flowing blood collected in heparinized capillary tubes in a microhematocrit centrifuge (Clay Adams, Parsippany, N.J., USA). Urinary excretion of AVP was quantified by a commercial ELISA kit (Enzo Life Sciences, Farmingdale, N.Y., USA). […] Based on serum and urine analysis, electrolyte-free clearance [CH20(e)] was computed using the formula CH20(e)=V((1−UNa+UK)/PNa), where V=urine volume, UNa and UK are urine Na and K, and PNa is plasma Na, respectively (Schrier 2006). Lithium levels in inner medullary tissue homogenates were assayed by Inductively Coupled Plasma-Mass Spectrometry (ICPMS) by Exova (Santa Fe Springs, Calif., USA), and were normalized to their respective protein contents.

[3] = system: Sprague-Dawley rats
Protocol: Animal experiments: Male Sprague-Dawley rats were purchased from Charles River (Wilmington, Mass., USA), and Brattleboro mutant rats that lack AVP (HsdBlu:BRAT-Avpdi) were obtained from the Rat Resource & Research Center (RRRC), University of Missouri, Columbia, Mo., USA. Mice (B6D2 genetic background) were bred in-house. […] Lithium-added chow (40 mmol Li/kg chow) was custom prepared (MP Biomedicals, Aurora, Ohio, USA). Clopidogrel bisulfate was administered orally by powdering and dissolving Plavix® tablets (Bristol-Myers Squibb, New York, N.Y., USA) in drinking water. The concentration of the drug in the drinking water was adjusted daily based on the water consumption of the animals the previous day. The clopidogrel dose used in Sprague-Dawley rats (20 mg/kg bw/day) was the same as used by other investigators (de La Crux et al, 2003; Graciano et al, 2008). In mice, clopidogrel was administered at a dose of 80 mg/kg bw/day. […]
Microhematocrit was determined by centrifuging free-flowing blood collected in heparinized capillary tubes in a microhematocrit centrifuge (Clay Adams, Parsippany, N.J., USA). Urinary excretion of AVP was quantified by a commercial ELISA kit (Enzo Life Sciences, Farmingdale, N.Y., USA). […]

[4] = system: AQP2 water channel protein; settings: normal rats, clopidogrel 20 mg/kg bw/day in drinking water 13 days, vs control
Protocol: Tissue samples were prepared and immnoblotted for semi-quantitative determination of protein abundances of P2Y12 receptor, and β-actin by the methods described previously (Zhang et al, ibid, 2008, 2009, 2010). Whole tissue homogenates were prepared in the presence of protease inhibitors, and the concentrations of proteins in the homogenates were determined, and solubilized in Laemmli buffer. Then the solubilized proteins were size fractionated on 12% SDS-polyacrylamide gels. Quality of tissue sample preparation and equality of protein loading were verified by staining parallel-run loading gels with Coomassie-blue (Gelcode Blue, Pierce Endogen, Rockford, Ill.). The size fractionated proteins were electrotransferred to nitrocellulose membranes, and blocked with buffer containing non-fat milk. Differences in protein loading were corrected by normalizing the band densities of the target proteins to that of β-actin (polyclonal antibody from Biolegend, San Diego, Calif., USA). After washing, the blocked membranes were incubated with rabbit polyclonal antibodies to either P2Y12 receptor (AnaSpec, Fremont, Calif.) or aquaporin-2 (AQP2; Zhang et al, ibid, 2008) or AQP1 (commercial source) or β-actin (Biolegend, San Diego, Calif.). Non-specific binding was prevented by incubation of the membranes with goat serum. Generation and characterization of AQP2 antibody (GN-762) was described previously (Kishore et al, 2000; Zhang et al, 2008). When peptide block was tested, prior to its use on the membranes the P2Y12 receptor antibody was pre-adsorbed by incubation with the blocking peptide as per the instructions of the supplier (AnaSpec, Fremont, Calif.). After washing off the primary antibodies, the nitrocellulose membranes were incubated with a peroxidase-conjugated secondary antibody to rabbit IgG (Dako North America, Carpinteria, Calif.). Chemiluminescence reaction was used to detect sites of antigen-antibody reactions (SuperSignal Substrate; Pierce Endogen, Rockford, Ill.), and captured on an X-ray film. Images were digitized and band densities were quantified by using Un-San-It software (Silk Scientific, Orem, Utah). The band densities of AQP2 were normalized by the band densities of β-actin. Mean values of relative band densities thus obtained for P2Y12 receptor were expressed as percent of the mean values obtained in the control group of animals.
Clopidogrel bisulfate was given orally to a group of Sprague-Dawley rats (n=4) for 13 days by dissolving powdered Plavix® tablets (75 mg base; Bristol-Myers Squibb/Sanofi, Bridgeport, N.J.) in drinking water, so that the rats consumed at least 20 mg of clopidogrel bisulfate base per kg body weight per day. The concentration of the drug in the drinking water was adjusted daily based on the water consumption of the rats the previous day. Another group of rats (n=4) was given plain water and this group served as controls.

## COC(=O)[C@H](c1ccccc1Cl)N1CCc2sccc2C1 [clopidogrel]
[1]; lithium-treated rodents
  development of AVP-resistant polyuria: blocked the development
[1]; rodents
  AVP in the urine (surrogate for plasma AVP levels): increased
  aquaporin-2 (AQP2) water channel protein in the kidney: increased
  urinary concentration: significantly increased
[2]; clopidogrel administered alone
  solute-free water absorption (negative value): modestly increased
[2]; co-administration of clopidogrel with lithium
  lithium-induced urinary AVP levels: augmented
[2]; lithium diet 40 mmol/kg chow + clopidogrel 20 mg/kg/day, 13 days
  lithium-induced polyuria: significantly ameliorated
[2]; lithium diet + clopidogrel 20 mg/kg/day, 13 days
  lithium-induced solute-free water excretion (electrolyte-free water clearance, positive value): effectively reversed
[3]; clopidogrel administration alone, rats
  urinary excretion of AVP: significantly increased
[3]; normal rats, clopidogrel 20 mg/kg bw/day in drinking water 13 days
  urinary concentration: Increased
[4]; P<0.002
  increase of AQP2 protein abundance in the inner medulla: 1.9 fold
[4]; P<0.02
  increase of AQP2 protein abundance in the cortex: 2.7 fold
[4]; P=0.24
  increase of AQP2 protein abundance in the outer medulla: not in the outer medulla
